Experiments:
HL-60(TB) = assay: NCI-60 screen, Leukemia panel; type: cell-based; conditions: Homo sapiens, HL-60, 48 h
HOP-62 = assay: NCI-60 screen, Non-Small Cell Lung Cancer panel; type: cell-based; conditions: Homo sapiens, HOP-62, 48 h, read-out: GI50 (log10GI50) (converted)
NCI-H460 = assay: NCI-60 screen, Non-Small Cell Lung Cancer panel; type: cell-based; conditions: Homo sapiens, NCI-H460, 48 h
IGROV1 = assay: NCI-60 screen, Ovarian Cancer panel; type: cell-based; conditions: Homo sapiens, IGROV-1; IGROV1, 48 h, SRB; read-out: GI50 (log10GI50) (converted)
Experimental: Additional four, 10-fold or ½ log serial dilutions are made to provide a total of five drug concentrations plus control.
For adherent cells, the assay is terminated by the addition of cold TCA. Cells are fixed in situ by the gentle addition of 50 μl of cold 50% (w/v) TCA (final concentration, 10% TCA) and incubated for 60 minutes at 4° C. The supernatant is discarded, and the plates are washed five times with tap water and air dried. Sulforhodamine B (SRB) solution (100 μl) at 0.4% (w/v) in 1% acetic acid is added to each well, and plates are incubated for 10 minutes at room temperature. After staining, unbound dye is removed by washing five times with 1% acetic acid and the plates are air dried. […] Using the seven absorbance measurements [time zero, (Tz), control growth, (C), and test growth in the presence of drug at the five concentration levels (Ti)], the percentage growth is calculated at each of the drug concentrations levels.
Three dose response parameters are calculated for each experimental agent. […] The drug concentration resulting in total growth inhibition (TGI) is calculated from Ti=Tz. […] Values are calculated for each of these three parameters if the level of activity is reached; however, if the effect is not reached or is exceeded, the value for that parameter is expressed as greater or less than the maximum or minimum concentration tested.

OVCAR-5 = assay: NCI-60 screen, Ovarian Cancer panel; type: cell-based; conditions: Homo sapiens, OVCAR-5, 48 h
OVCAR-8 = assay: NCI-60 screen, Ovarian Cancer panel; type: cell-based; conditions: Homo sapiens, OVCAR-8, 48 h
UO-31 = assay: NCI-60 screen, Renal Cancer panel; type: cell-based; conditions: Homo sapiens, UO-31, 48 h
LNCaP (AR+ Prostate) = assay: Short term (72 h) cytotoxicity assay; type: cell-based
[1] = tested on: Patient derived tumor (melanoma): p53, LIF, MDM2, pSTAT3, Ki67; assay: Immunohistochemistry analysis of patient derived tumor; type: cell-based, human; conditions: 10 nM and 1 uM for 5 days, FIG. 10
Experimental: Patient derived tumor (melanoma) was treated with the compounds at 10 nM and 1 uM for 5 days in RPMI medium and harvested on day 6 using established protocol and immunohistochemistry was performed for different antibodies including p53, LIF, MDM2, pSTAT3, Ki67.

[2] = read-out: GI50 (log10GI50) (converted)
[3] = read-out: LC50 (log10LC50) (converted)

C#CC(F)(F)[C@]1(O)CCC2C3CCC4=CC(=O)CCC4=C3C(c3ccc(C4CC4)cc3)C[C@@]21C (stereo partly drawn) [EC330, 17α-(1,1-difluoro-2-propyn-1-yl)-17β-hydroxy-11β-[4-p-(cyclopropyl)phenyl]estra-4,9-dien-3-one]
GI50 (HL-60(TB); [2]): < 10 nM | CC50 (HL-60(TB); [3]): < 10 nM | GI50 (HOP-62): 14.1 nM | GI50 (NCI-H460; [2]): 2690 nM | CC50 (NCI-H460; [3]): > 100000 nM | GI50 (IGROV1): < 10 nM | GI50 (OVCAR-5; [2]): 1070 nM | CC50 (OVCAR-5; [3]): > 100000 nM | GI50 (OVCAR-8; [2]): 1550 nM | CC50 (OVCAR-8; [3]): > 100000 nM | GI50 (UO-31; [2]): < 10 nM | CC50 (UO-31; [3]): < 10 nM | IC50 (LNCaP (AR+ Prostate)): 53 nM | apoptosis, p53, MDM2, LIF mediated STAT3 phosphorylation (immunohistochemistry) [1]: induce apoptosis and restore p53 by inhibiting MDM2 and LIF mediated STAT3 phosphorylation
